The text below walks through data of patent publication US11001829B2, “Functional screening with optimized functional CRISPR-Cas systems” (The Broad Institute, Inc., priority 2014, dated 2021).

One data set has as its system Factor VII. The note with it: LNP siRNA systems containing the lipid; cited from earlier work.
Data set [1] deals with A375 melanoma cell line (BRAF V600E). The note with it: cited from earlier work.
Another data set deals with DNA. The data set can be described thus: indel formation by double nicking with sgRNA pairs. The class given is cell-based. The note with it: substitution of Cas9n in a given sgRNA pair. The source says: Aspects of the invention relate to the expression of the gene product being decreased or a template polynucleotide being further introduced into the DNA molecule encoding the gene product or an intervening sequence being excised precisely by allowing the two 5′ overhangs to reanneal and ligate or the activity or function of the gene product being altered or the expression of the gene product being increased. In an embodiment of the invention, the gene product is a protein. Only sgRNA pairs creating 5′ overhangs with less than 8 bp overlap between the guide sequences (offset greater than −8 bp) were able to mediate detectable indel formation. […] Nonetheless, a pair of sgRNAs that will generate a 5′ overhang with Cas9n should in principle generate the corresponding 3′ overhang instead, and double nicking. […] Accordingly, in some embodiments, a recombination template is also provided. A recombination template may be a component of another vector as described herein, contained in a separate vector, or provided as a separate polynucleotide. In some embodiments, a recombination template is designed to serve as a template in homologous recombination, such as within or near a target sequence nicked or cleaved by a CRISPR enzyme as a part of a CRISPR complex. […]

In another data set the test system is MS2 RNA aptamer. The note with it: cited from earlier work.
A further data set deals with human ASCL1. Description: ASCL1 activation in HEK293FT cells, qPCR. It is filed as cell-based. The method, then: (§1) Human HEK293FT cells were maintained in high-glucose DMEM with GlutaMax and sodium pyruvate (Life Technologies) supplemented with 10% heat-inactivated characterized HyClone fetal bovine serum (Thermo Scientific) and 1% penicillin/streptomycin (Life Technologies). Cells were passaged daily at a ratio 1 to 2 or 1 to 2.5. For MS2/dCas9 activator experiments, 20,000 HEK293FT cells were plated in 100 μL of culture medium in poly-d-lysine coated 96-well plates (BD biosciences). […]
(§2) Total plasmid mass per well was 0.3 micrograms. […] Gene expression levels were quantified by using Taqman qPCR probes (Life technologies) and Fast Advanced Master Mix (Life Technologies). ASCL1 and MYOD1 expression levels were calculated relative to GAPDH expression level. Fold gene expression levels were determined by comparison to samples transfected with GFP plasmid only. […]
(§3) A total plasmid mass of 0.3 ug/well was transfected using 1.5 uL/well Lipofectamine 2000 (Life Technologies) according to the manufacturer's instructions. […] Relative RNA expression levels were quantified by reverse transcription and quantitative PCR (qPCR) using Taqman qPCR probes (Life technologies) and Fast Advanced Master Mix (Life Technologies). qPCR was carried out in 5 uL multiplexed reactions and 384-well format using the LightCycler 480 Instrument II. […]
(Real-time PCR tracks product formation cycle by cycle.)

The subject of another data set is Neurog2. Description: Neurog2 upregulation in Neuro-2a cells, qRT-PCR. It is filed as cell-based. The method, then:
120,000 cells were plated in each well of a 24-well plate 18-20 h before transfection. Cells were transfected with Lipofectamine transfection reagent (Life Technologies) according to the manufacturer's instructions.
RNA was extracted using the RNeasy kit (Qiagen) according to manufacturer's instructions and […] of RNA per sample was reverse-transcribed using qScript (Quanta Biosystems). Relative mRNA levels were measured by reverse transcription and quantitative PCR (qRT-PCR) using TaqMan probes specific for the targeted gene as well as GAPDH as an endogenous control (Life Technologies). ddCt analysis was used to obtain fold-changes relative to negative controls transfected with GFP only.
A minimal hairpin aptamer capable of binding to the bacteriophage coat protein MS2, which is known to be capable of binding MS2 through strong sequence- and structure-specific interactions in mammalian cells^18,19, to incorporate into tetraloop and stem-loop 2 (FIG. 27b) was chosen. Tests were performed to evaluate whether MS2-mediated recruitment of VP64 to the tetraloop and stem-loop 2 could mediate transcriptional up-regulation more efficiently than a dCas9-VP64 fusion alone. Aptamer-mediated recruitment of MS2-VP64 to either tetraloop (sgRNA 1.1) or stem-loop 2 (sgRNA 1.2) mediated 3- and 5-fold higher levels of Neurog2 up-regulation than a dCas9-VP64 fusion (sgRNA 1.0), respectively.

The next data set concerns human MYOD1. The data set can be described thus: MYOD1 activation in HEK293FT cells, qPCR. It is filed as cell-based. The method, then: as §1, §2, §3
The next data set has as its system CXCR4, CACNAC1A. Description: repression by non-coding Alu loops in the sgRNA with dCas9, HEK293FT, qPCR. The class given is cell-based, human. Particulars: in complex with dCas9. How it is done:
The non-coding Alu RNA has previously been described as a transacting repressor interfering with RNA polymerase II in mammalian cells. In addition, a minimal loop required for repression has been identified (sciencedirect.com/science/article/pii/S1097276508000026). Applicants designed guides with different sites of incorporation of the truncated Alu loop (and in combination with PP7 loops). Sequences for these sgRNA backbones are listed below: […]
A total plasmid mass of 0.3 μg/well was transfected using 0.6 μL/well Lipofectamine 2000 (Life Technologies) according to the manufacturer's instructions. […] Relative RNA expression levels were quantified by reverse transcription and quantitative PCR (qPCR) using TaqMan qPCR probes (Life Technologies) and Fast Advanced Master Mix (Life Technologies). qPCR was carried out in 5 μL multiplexed reactions and 384-well format using the LightCycler 480 Instrument II. Data was analyzed by the ΔΔCt method: target Ct values (FAM dye) were normalized to GAPDH Ct values (VIC dye), and fold changes in target gene expression were determined by comparing to GFP-transfected experimental controls.

“1,2-dilinoleyloxy-keto-N,N-dimethyl-3-aminopropane [DLinKDMA]”: the “gene silencing potency, rank order” value in the data set on Factor VII is “DLinKC2-DMA>DLinKDMA>DLinDMA>>DLinDAP”.
As for `CCCCC/C=C\C/C=C\CCCCCCCC(=O)OCC(CN(C)C)OC(=O)CCCCCCC/C=C\C/C=C\CCCCC` (centres unmarked) [DLinDAP, 1,2-dilineoyl-3-dimethylammonium-propane], in the data set on Factor VII, the “gene silencing potency, rank order” value is listed as “DLinKC2-DMA>DLinKDMA>DLinDMA>>DLinDAP”.
`CCCCC/C=C\C/C=C\CCCCCCCCOCC(CN(C)C)OCCCCCCCC/C=C\C/C=C\CCCCC` (centres unmarked) [DLinDMA, 1,2-dilinoleyloxy-3-N,N-dimethylaminopropane]: the “gene silencing potency, rank order” value with Factor VII was “DLinKC2-DMA>DLinKDMA>DLinDMA>>DLinDAP”.
As for `CCCCC/C=C\C/C=C\CCCCCCCCC1(CCCCCCCC/C=C\C/C=C\CCCCC)OCC(CCN(C)C)O1` (centres unmarked) [DLinKC2-DMA, 1,2-dilinoleyl-4-(2-dimethylaminoethyl)-[1,3]-dioxolane], the “gene silencing potency, rank order” value with Factor VII is listed as “DLinKC2-DMA>DLinKDMA>DLinDMA>>DLinDAP”.
Take `CCCS(=O)(=O)Nc1ccc(F)c(C(=O)c2c[nH]c3ncc(Cl)cc23)c1F` [PLX4720]: the “sensitivity of A375 cells, in words” value in data set [1] is listed as “naturally sensitive”.
Regarding “H840A: Cas9 with the H840A mutation in the HNH domain”, the “indel formation, in words” value with DNA is “no indel formation is observed”.
On to “N55K mutant of the MS2 bacteriophage coat protein: MS2 variant, N55K mutant”, for which the “binding affinity, in words” value in the data set with MS2 RNA aptamer is recorded as “higher binding affinity than wild type MS2”.

B1: sgRNA 2.0: sgRNA scaffold in which the tetraloop and stem-loop 2 sequences have been replaced by an MS2 binding loop (nucleic acid)
guide: NNNNNNNNNNNNNNNNNNNNGUUUUAGAGCUAGGCCAACATGAGGATCACCCATGTCTGCAGGGCCUAGCAAGUUAAAAUAAGGCUA
modifications: /note=“Description of Combined DNA/RNA Molecule Synthetic oligonucleotide”; modified_base (1)..(20) a, c, t, g, unknown or other
Consider B1, for which, in the data set on human ASCL1, the “ASCL1 activation, comparison in words” value is on record as “more potent than either of the 3′ MS2 sgRNA architectures”. Besides, the “levels of transcription activation relative to sgRNA+2×MS2” value in the data set with human ASCL1 (ASCL1) worked out at 14 fold; in the data set with human MYOD1 (MYOD1), 8.5 fold. For the same molecule, the “levels of Neurog2 up-regulation relative to a dCas9-VP64 fusion (sgRNA 1.0)” value with Neurog2 (aptamer-mediated recruitment of MS2-VP64, with dCas9) came to 12 fold. For the same molecule, the “target gene upregulation (Neurog2), in words” value in the data set with Neurog2 (with dCas9-vp64 and MS2-vp64, compared with regular guide and dCas9-vp64) is recorded as “much higher target gene upregulation compared to the previous design”. Further, in the data set with human MYOD1, the “MYOD1 activation, comparison in words” value is “more potent than either of the 3′ MS2 sgRNA architectures”.

B2: minimal non-coding Alu-loops at the tetraloop and stem-loop 2: sgRNA backbone with truncated Alu loop at tetraloop and stem-loop 2 (nucleic acid)
guide: GTTTTAGAGCTAGAGGCAGGAGAATGGCGTGAACCCGGGAGGTGGCCGAGATCGCTCCAGCCTGGGTGACAGAGCGAGACTCTGTCTCTAGCAAGTTAAAATAAGGCTAGTCCGTTATCAACTTGAGGCAGGAGAATGGCGTGAACCCGGGAGGTGGCCGAGATCGCTCCAGCCTGGGTGACAGAGCGAGACTCTGTCTCAAGTGGCACCGAGTCGGTGCTTTTTTT
With B2, the “repression of target gene expression, in words” value with CXCR4, CACNAC1A was “able to repress target gene expression in complex with dCas9”.
